This is an account of results in ChEMBL document CHEMBL1144896 (2003).

In assay [1] the test system is BJ. In words: hTERT-SEAP (Human telomerase reverse transcriptase-SEAP) activity in immortalized hTERT-BJI at 2.8 uM concentration and level of cell viability determined in MTT assay. In kind it is functional.
The subject of assay [2] is NCI-H1299. Kind of assay: hTERT-SEAP (Human telomerase reverse transcriptase-SEAP) activity in non-small cell lung cancer H1299 cell at 2.8 uM concentration and level of cell viability determined in MTT assay. The class given is functional.
The subject of assay [3] is BJ. Kind of assay: pPCMV-SEAP (cytomegalovirus-SEAP) activity in immortalized hTERT-BJ1 at 2.8 uM concentration and level of cell viability determined in MTT assay. The class given is functional, Homo sapiens.
The subject of assay [4] is BJ. Kind of assay: hTERT-SEAP (Human telomerase reverse transcriptase-SEAP) activity in immortalized hTERT-BJI at 280.0 uM concentration and level of cell viability determined in MTT assay. In kind it is functional.
Assay [5] deals with BJ. In words: Compound was tested for human telomerase reverse transcriptase-SEAP (hTERT-SEAP) activity in immortalized hTERT-BJI at 28.0 uM concentration. In kind it is functional.
In assay [6] the test system is NCI-H1299. Kind of assay: Compound was tested for human telomerase reverse transcriptase-SEAP (hTERT-SEAP) activity in non-small cell lung cancer H1299 cell at 28.0 uM concentration. The class given is functional.
Assay [7] relates to BJ. In words: Compound was tested for human telomerase reverse transcriptase-SEAP (hTERT-SEAP) activity in immortalized hTERT-BJI at 2.8 uM concentration. The class given is functional.
Assay [8] deals with BJ. Kind of assay: Compound was tested for human telomerase reverse transcriptase-SEAP (hTERT-SEAP) activity in immortalized hTERT-BJI at 280.0 uM concentration. The class given is functional.
Assay [9] relates to NCI-H1299. In words: hTERT-SEAP (Human telomerase reverse transcriptase-SEAP) activity in non-small cell lung cancer H1299 cell at 28 uM concentration and level of cell viability determined in MTT assay. In kind it is functional.
The test system of assay [10] is BJ. Kind of assay: Compound was tested for cytomegalovirus or (pPCMV-SEAP) activity in immortalized hTERT-BJ1 at 28 uM concentration. The class given is functional, Homo sapiens.
For assay [11], the system named is BJ. Kind of assay: pPCMV-SEAP (cytomegalovirus-SEAP) activity in immortalized hTERT-BJ1 at 28 uM concentration and level of cell viability determined in MTT assay. The class given is functional, Homo sapiens.
The test system of assay [12] is NCI-H1299. In words: hTERT-SEAP (Human telomerase reverse transcriptase-SEAP) activity in non-small cell lung cancer H1299 cell at 280.0 uM concentration and level of cell viability determined in MTT assay. The class given is functional.
The subject of assay [13] is BJ. Kind of assay: hTERT-SEAP (Human telomerase reverse transcriptase-SEAP) activity in immortalized hTERT-BJI at 28.0 uM concentration and level of cell viability determined in MTT assay. In kind it is functional.
Assay [14] relates to BJ. Kind of assay: Compound was tested for cytomegalovirus or (pPCMV-SEAP) activity in immortalized hTERT-BJ1 at 280 uM concentration. The class given is functional, Homo sapiens.
Assay [15] deals with NCI-H1299. In words: Compound was tested for human telomerase reverse transcriptase-SEAP (hTERT-SEAP) activity in non-small cell lung cancer H1299 cell at 2.8 uM concentration. The class given is functional.
Assay [16] deals with BJ. In words: Compound was tested for cytomegalovirus or (pPCMV-SEAP) activity in immortalized hTERT-BJ1 at 2.8 uM concentration. The class given is functional, Homo sapiens.
For assay [17], the system named is BJ. In words: pPCMV-SEAP (cytomegalovirus-SEAP) activity in immortalized hTERT-BJ1 at 280 uM concentration and level of cell viability determined in MTT assay. The class given is functional, Homo sapiens.
Assay [18] deals with NCI-H1299. In words: Compound was tested for human telomerase reverse transcriptase-SEAP (hTERT-SEAP) activity in non-small cell lung cancer H1299 cell at 280.0 uM concentration. In kind it is functional.
Assay [19] deals with BJ. Kind of assay: Compound was tested for human telomerase reverse transcriptase-SEAP (hTERT-SEAP) activity in immortalized hTERT-BJI at 20 uM concentration. In kind it is functional.
The test system of assay [20] is BJ. In words: Compound was tested for human telomerase reverse transcriptase-SEAP (hTERT-SEAP) activity in immortalized hTERT-BJI at 200.0 uM concentration. In kind it is functional.
Assay [21] deals with NCI-H1299. Kind of assay: Compound was tested for human telomerase reverse transcriptase-SEAP (hTERT-SEAP) activity in non-small cell lung cancer H1299 cell at 20 uM concentration. In kind it is functional.
The test system of assay [22] is NCI-H1299. Kind of assay: hTERT-SEAP (Human telomerase reverse transcriptase-SEAP) activity in non-small cell lung cancer H1299 cell at 200.0 uM concentration and level of cell viability determined in MTT assay. In kind it is functional.
The subject of assay [23] is NCI-H1299. Kind of assay: Compound was tested for human telomerase reverse transcriptase-SEAP (hTERT-SEAP) activity in non-small cell lung cancer H1299 cell at 200.0 uM concentration. The class given is functional.
For assay [24], the system named is NCI-H1299. Kind of assay: (§1) hTERT-SEAP (Human telomerase reverse transcriptase-SEAP) activity in non-small cell lung cancer H1299 cell at 2.0 uM concentration and level of cell viability determined in MTT assay. The class given is functional.
For assay [25], the system named is NCI-H1299. The assay is described as §1. In kind it is functional. The source holds these as a separate data set.
In assay [26] the test system is NCI-H1299. Kind of assay: Compound was tested for human telomerase reverse transcriptase-SEAP (hTERT-SEAP) activity in non-small cell lung cancer H1299 cell at 2.0 uM concentration. In kind it is functional.
The test system of assay [27] is BJ. Kind of assay: hTERT-SEAP (Human telomerase reverse transcriptase-SEAP) activity in immortalized hTERT-BJI at 20 uM concentration and level of cell viability determined in MTT assay. The class given is functional.
For assay [28], the system named is BJ. Kind of assay: hTERT-SEAP (Human telomerase reverse transcriptase-SEAP) activity in immortalized hTERT-BJI at 200.0 uM concentration and level of cell viability determined in MTT assay. In kind it is functional.
The subject of assay [29] is NCI-H1299. In words: hTERT-SEAP (Human telomerase reverse transcriptase-SEAP) activity in non-small cell lung cancer H1299 cell at 20 uM concentration and level of cell viability determined in MTT assay. The class given is functional.

With `CCC(=O)Oc1cccc2c1C(=O)c1cccc(OC(=O)CC)c1C2=O`, the Relative viability turned out to be 99% in [1]; 116% in [2]; 114% in assay [3]; 93% in [4]; 116% in assay [9]; 110% in assay [11]. Besides, the Relative viability in [12] is given as 87%; in assay [13], 109%; in [17] it was 94%. Further, the “Relative SEAP activity” value in [5] was 152%; in [6] it was 107%; in [7], 131%; in [8], 161%; in [10], 112%; in [14] it was 138%. In addition, the entries for the “Relative SEAP activity” value in [15], in [16] and in assay [18] were 103%, 101% and 97%, respectively.
Regarding `O=C(CCc1ccccc1)Oc1cccc2c1C(=O)c1cccc(OC(=O)CCc3ccccc3)c1C2=O`, the “Relative SEAP activity” value came out at 124% in [19]; 110% in assay [20]; 98% in [21]; 89% in assay [23]; 94% in assay [26]. The Relative viability in assay [22] worked out at 54%; in assay [24] it was 111%; in assay [25], 111%; in assay [27], 106%; in assay [28], 76%; in assay [29] it was 101%.
